The results in this text go back to patent US20240181087A1, “COMPOSITION FOR CONTRAST IMAGING OF CANCER” (ASTELLAS PHARMA INC., priority 2021, published 2024).

Each structure is given as a SMILES string.

Common to all, as to format: in vivo
The test system of assay [1] is human neuroblastoma cells SH-SY5Y. Kind of assay: near-infrared fluorescence imaging after topical administration into tumor, human neuroblastoma subcutaneous transplant model. The conditions noted are these: SCID mouse, 0.02 to 0.1 mL of 1 mg/mL, 1 hour after administration. Here is the method:
(§1) A human cancer cell transplant model mouse was created as follows: • (Head and neck/tongue cancer) To immunodeficient SCID mice (weight: 17 g to 23 g), about 10^6 human tongue cancer cells CAL27 (purchased from American Type Culture Collection: ATCC) were subcutaneously administered, and the resultant mice were grown for 49 days to create tumor models. • (Brain cancer/neuroblastoma) To immunodeficient SCID mice (weight: 17 g to 23 g), about 10^6 human neuroblastoma cells SH-SY5Y (purchased from ATCC) were subcutaneously administered, and the resultant mice were grown for 90 days to create tumor models. • (Brain cancer/glioblastoma) To immunodeficient SCID mice (weight: 17 g to 23 g), about 10^6 human glioblastoma cells U-251MG (obtained from European Collection of Authenticated Cell Cultures) were subcutaneously administered, and the resultant mice were grown for 90 days to create tumor models.
(§2) Subsequently, to the tumor of each of the mouse models, 0.02 to 0.1 mL of a saline containing the compound III (concentration of the compound III: 1 mg/mL) was topically administered, and fluorescence imaging was conducted transdermally with a near-infrared fluorescence camera (Fluobeam, manufactured by Fluoptics) (excitation wavelength: 780 nm, detection wavelength: 800 nm or more).

For the next assay, the system named is RenCa kidney cancer cell. Kind of assay: near-infrared fluorescence observation of kidney, kidney cancer mouse (RenCa in left kidney). To be noted: tail vein 12 nmol/kg, after 10 minutes. Here is the method:
Under anesthesia by subcutaneous administration of ketamine (75 mg/kg) and medetomidine (1 mg/kg), RenCa kidney cancer cell (5×10^6 cells, purchased from CLS Cell Lines Service GmbH, Eppelheim, Germany) was transplanted into the left kidney of a mouse (weight: about 20 g), and the resultant mouse was bred for 9 to 14 days to create a kidney cancer mouse. […] The fluorescence from a cancer tissue was weak, the fluorescence from a normal tissue was strong, and thus, the cancer tissue and the normal tissue could be distinguished from each other (FIG. 24).

Assay [2] relates to Human stomach cancer cell MKN45-Luc. Kind of assay: near-infrared fluorescence observation of abdominal cavity, peritoneal dissemination mouse model. To be noted: tail vein 40 nmol/kg, 10 minutes. The source says:
Human stomach cancer cell MKN45-Luc (5×10^6 cells, purchased from JCRB cell bank of National Institutes of Biomedical Innovation, Health and Nutrition) was intraperitoneally injected into a nude mouse (BALB/cSlc-nu, SPF, male, weight: about 20 g), and the resultant mouse was bred for 15 days to create a nude mouse having peritoneal dissemination. […] The near-infrared fluorescence was not emitted from the abdominal cavity of the normal mouse (FIG. 22).

For assay [3], the system named is mouse bladder cancer cell MB49. Kind of assay: near-infrared fluorescence observation of bladder after intravesical administration via the urethra, MB49 bladder cancer mouse model. The conditions noted are these: into bladder via urethra, after 30 minutes washed with saline five times. Here is the method: Two bladder cancer mouse models (weight: about 20 g), having mouse bladder cancer cell MB49 transplanted in the bladder mucosa, and then grown for 3 weeks or 4 weeks, were used. To the bladder of each of the mice, 0.2 mL of a saline containing the compound III (concentration of the compound III: 0.075 mg/mL) was administered via the urethra, and after 30 minutes, the inside of the bladder was washed via the urethra with saline five times. Thereafter, the mouse was subjected to laparotomy under anesthesia by subcutaneous administration of ketamine (75 mg/kg) and medetomidine (1 mg/kg), and near-infrared fluorescence observation was performed with a near-infrared fluorescence imaging device (pde-neo, manufactured by Hamamatsu Photonics K.K.) (FIG. 3, right: near-infrared fluorescence image).
As a comparative example, a saline containing the compound III was administered to the bladder of a normal mouse (weight: about 20 g) via the urethra, and after 30 minutes, the inside of the bladder was washed via the urethra with saline five times. Thereafter, the mouse was subjected to laparotomy under anesthesia by subcutaneous administration of ketamine (75 mg/kg) and medetomidine (1 mg/kg), and near-infrared fluorescence observation was performed with a near-infrared fluorescence imaging device (pde-neo, manufactured by Hamamatsu Photonics K.K.) (FIG. 4). […]

Assay [4] concerns human tongue cancer cells CAL27. Kind of assay: near-infrared fluorescence imaging after topical administration into tumor, human tongue cancer subcutaneous transplant model. To be noted: SCID mouse, 0.02 to 0.1 mL of 1 mg/mL, immediately after and 50 minutes after administration. Here is the method:
as §1, §2

Assay [5] deals with Human stomach cancer cell MKN45. Kind of assay: near-infrared fluorescence observation, human stomach cancer cell subcutaneous transplant mouse. To be noted: nude mouse, tail vein 120 nmol/kg, observed from above the skin. An excerpt:
Human stomach cancer cell MKN45 (1×10^7 cells, purchased from JCRB cell bank of National Institutes of Biomedical Innovation, Health and Nutrition) was subcutaneously transplanted into the right or left side, or the center of the back in the base of the foreleg of a nude mouse (BALB/cSlc-nu, SPF, male, 5 weeks old), and the resultant mouse was bred for 10 days to create a mouse having a stomach cancer tissue grown therein. After anesthetizing the mouse (weight: about 20 g) by subcutaneous administration of ketamine (75 mg/kg) and medetomidine (1 mg/kg), the compound III (120 nmol/kg weight) was administered through the tail vein, and near-infrared fluorescence was observed from above the skin on the back side with a near-infrared fluorescence imaging device (pde-neo, manufactured by Hamamatsu Photonics K.K.).

The mark [6] stands for this setting: MKN45-Luc peritoneal dissemination nude mouse.

Regarding `COC1=C(/C=C/C2=[N+](CCC(=O)NCCCO[C@H]3[C@H]4O[C@H]5[C@H](O)[C@@H](O)[C@@H](O[C@H]6[C@H](O)[C@@H](O)[C@@H](O[C@H]7[C@H](O)[C@@H](O)[C@@H](O[C@H]8[C@H](O)[C@@H](O)[C@@H](O[C@H]9[C@H](O)[C@@H](O)[C@@H](O[C@H]%10[C@H](O)[C@@H](O)[C@@H](O[C@@H]([C@@H]3O)[C@@H](CO)O4)O[C@@H]%10CO)O[C@@H]9CO)O[C@@H]8CO)O[C@@H]7CO)O[C@@H]6CO)O[C@@H]5CO)c3ccc4ccccc4c3C2(C)C)CCC/C1=C\C=C1\N(CCC(=O)NCCCO[C@H]2[C@H]3O[C@H]4[C@H](O)[C@@H](O)[C@@H](O[C@H]5[C@H](O)[C@@H](O)[C@@H](O[C@H]6[C@H](O)[C@@H](O)[C@@H](O[C@H]7[C@H](O)[C@@H](O)[C@@H](O[C@H]8[C@H](O)[C@@H](O)[C@@H](O[C@H]9[C@H](O)[C@@H](O)[C@@H](O[C@@H]([C@@H]2O)[C@@H](CO)O3)O[C@@H]9CO)O[C@@H]8CO)O[C@@H]7CO)O[C@@H]6CO)O[C@@H]5CO)O[C@@H]4CO)c2ccc3ccccc3c2C1(C)C.[Cl-]` [compound III, 3-(3-{[3-(cyclomaltoheptaose-21-O-yl)propyl]amino}-3-oxopropyl)-2-{(1E)-2-[(3E)-3-{(2E)-2-[3-(3-{[3-(cyclomaltoheptaose-21-O-yl)propyl]amino}-3-oxopropyl)-1,1-dimethyl-1,3-dihydro-2H-benzo[e]indol-2-ylidene]ethylidene}-2-methoxycyclohexa-1-en-1-yl]ethene-1-yl}-1,1-dimethyl-1H-benzo[e]indol-3-ium chloride], the “retention inside the tumor (fluorescence imaging)” value in assay [1] was “retained inside the tumor”. For the same compound, in the assay on RenCa kidney cancer cell, the “fluorescence from kidney cancer tissue” value was “weak” and the “fluorescence from normal kidney tissue” value is recorded as “strong”. For the same compound, in assay [2] (setting [6]), the “near-infrared fluorescence of dissemination present in the entire abdominal cavity” value is listed as “emitted the near-infrared fluorescence” and the “near-infrared fluorescence of visually recognizable cancer tissue (nearly necrotic)” value is “did not emit the near-infrared fluorescence”. The “near-infrared fluorescence from abdominal cavity of normal mouse” value in assay [2] (normal nude mouse) is “not emitted”. Further, the “near-infrared fluorescence in cancer tissue of the bladder” value in assay [3] (MB49 bladder cancer mouse model, 0.2 mL 0.075 mg/mL) is “specifically observed”. Further, the “near-infrared fluorescence of normal tissue (bladder)” value in assay [3] (normal mouse) was “did not emit near-infrared fluorescence”. In assay [4], the “retention inside the tumor (fluorescence imaging)” value is on record as “retained inside the tumor”. Further, the “near-infrared fluorescence of stomach cancer tissue versus normal tissue” value in assay [5] is given as “stronger in a cancer tissue than in a normal tissue”.
